Test results taken from PubChem BioAssay (NCI).
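Protocol summary: plate cells (96-well), add compound at 5 concentrations, incubate 48 h, interpolate endpoints linearly. GI50 = concentration required for 50% inhibition of growth. TGI is the concentration that stops growth completely.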

Experiments:
Assay in all cases: NCI tumour cell line growth inhibition, 48 h
786-0 renal = system: 786-0 renal
A498 renal = system: A498 renal
A549 NSCLC = system: A549 NSCLC
ACHN renal = system: ACHN renal
BT-549 breast = system: BT-549 breast
CAKI-1 renal = system: CAKI-1 renal
CCRF-CEM leukemia = system: CCRF-CEM leukemia
COLO 205 colon = system: COLO 205 colon
DU-145 prostate = system: DU-145 prostate
EKVX NSCLC = system: EKVX NSCLC
HCT-116 colon = system: HCT-116 colon
HCT-15 colon = system: HCT-15 colon
HL-60(TB) leukemia = system: HL-60(TB) leukemia
HOP-62 NSCLC = system: HOP-62 NSCLC
HOP-92 NSCLC = system: HOP-92 NSCLC
HS 578T breast = system: HS 578T breast
IGROV1 ovarian = system: IGROV1 ovarian
K-562 leukemia = system: K-562 leukemia
KM12 colon = system: KM12 colon
LOX IMVI melanoma = system: LOX IMVI melanoma
M14 melanoma = system: M14 melanoma
MCF7 breast = system: MCF7 breast
MDA-MB-231 breast = system: MDA-MB-231 breast
MDA-MB-435 = system: MDA-MB-435
MOLT-4 leukemia = system: MOLT-4 leukemia
NCI-H226 lung = system: NCI-H226 lung
NCI-H23 lung = system: NCI-H23 lung
NCI-H460 lung = system: NCI-H460 lung
NCI-H522 lung = system: NCI-H522 lung
NCI/ADR-RES ovarian = system: NCI/ADR-RES ovarian
OVCAR-3 ovarian = system: OVCAR-3 ovarian
OVCAR-4 ovarian = system: OVCAR-4 ovarian
OVCAR-5 ovarian = system: OVCAR-5 ovarian
OVCAR-8 ovarian = system: OVCAR-8 ovarian
PC-3 prostate = system: PC-3 prostate
RPMI-8226 leukemia = system: RPMI-8226 leukemia
RXF 393 renal = system: RXF 393 renal
SF-268 CNS = system: SF-268 CNS
SF-295 CNS = system: SF-295 CNS
SF-539 CNS = system: SF-539 CNS
SK-MEL-2 melanoma = system: SK-MEL-2 melanoma
SK-MEL-28 melanoma = system: SK-MEL-28 melanoma
SK-MEL-5 melanoma = system: SK-MEL-5 melanoma
SK-OV-3 ovarian = system: SK-OV-3 ovarian
SN12C renal = system: SN12C renal
SNB-19 CNS = system: SNB-19 CNS
SR leukemia = system: SR leukemia
SW-620 colon = system: SW-620 colon
TK-10 renal = system: TK-10 renal
U251 CNS = system: U251 CNS
UACC-257 melanoma = system: UACC-257 melanoma
UACC-62 melanoma = system: UACC-62 melanoma
UO-31 renal = system: UO-31 renal

COc1ccc(C2C(C#N)=C(N)OC3=C2COc2ccc(F)cc23)cc1OC (stereo unspecified)
GI50 (786-0 renal): 25.6 µM | TGI (786-0 renal): > 100 µM | GI50 (A498 renal): 28.3 µM | TGI (A498 renal): 59.1 µM | GI50 (A549 NSCLC): 27.2 µM | TGI (A549 NSCLC): 63.8 µM | GI50 (ACHN renal): 12.3 µM | TGI (ACHN renal): 37.2 µM | GI50 (BT-549 breast): 28.9 µM | TGI (BT-549 breast): > 100 µM | GI50 (CAKI-1 renal): 16.5 µM | TGI (CAKI-1 renal): 47.3 µM | GI50 (CCRF-CEM leukemia): 47.5 µM | TGI (CCRF-CEM leukemia): > 100 µM | GI50 (COLO 205 colon): 19.1 µM | TGI (COLO 205 colon): > 100 µM | GI50 (DU-145 prostate): 28.2 µM | TGI (DU-145 prostate): > 100 µM | GI50 (EKVX NSCLC): 17.8 µM | TGI (EKVX NSCLC): > 100 µM | GI50 (HCT-116 colon): 12 µM | TGI (HCT-116 colon): 36.1 µM | GI50 (HCT-15 colon): 18.8 µM | TGI (HCT-15 colon): 76.5 µM | GI50 (HL-60(TB) leukemia): 34.2 µM | TGI (HL-60(TB) leukemia): 70.8 µM | GI50 (HOP-62 NSCLC): 27.9 µM | TGI (HOP-62 NSCLC): > 100 µM | GI50 (HOP-92 NSCLC): 47.6 µM | TGI (HOP-92 NSCLC): > 100 µM | GI50 (HS 578T breast): 35.6 µM | TGI (HS 578T breast): 81.7 µM | GI50 (IGROV1 ovarian): 28.7 µM | TGI (IGROV1 ovarian): > 100 µM | GI50 (K-562 leukemia): 31.8 µM | TGI (K-562 leukemia): > 100 µM | GI50 (KM12 colon): 23.5 µM | TGI (KM12 colon): 69.2 µM | GI50 (LOX IMVI melanoma): 11.3 µM | TGI (LOX IMVI melanoma): 24.1 µM | GI50 (M14 melanoma): 40.1 µM | TGI (M14 melanoma): > 100 µM | GI50 (MCF7 breast): 32.9 µM | TGI (MCF7 breast): > 100 µM | GI50 (MDA-MB-231 breast): 14.3 µM | TGI (MDA-MB-231 breast): 58.8 µM | GI50 (MDA-MB-435): 23.6 µM | TGI (MDA-MB-435): 62.3 µM | GI50 (MOLT-4 leukemia): 49.5 µM | TGI (MOLT-4 leukemia): > 100 µM | GI50 (NCI-H226 lung): 13.9 µM | TGI (NCI-H226 lung): 51.1 µM | GI50 (NCI-H23 lung): 13.1 µM | TGI (NCI-H23 lung): 36.7 µM | GI50 (NCI-H460 lung): 40 µM | TGI (NCI-H460 lung): > 100 µM | GI50 (NCI-H522 lung): 54.3 µM | TGI (NCI-H522 lung): > 100 µM | GI50 (NCI/ADR-RES ovarian): 19.4 µM | TGI (NCI/ADR-RES ovarian): 57.3 µM | GI50 (OVCAR-3 ovarian): 17.5 µM | TGI (OVCAR-3 ovarian): 43.5 µM | GI50 (OVCAR-4 ovarian): 24.9 µM | TGI (OVCAR-4 ovarian): > 100 µM | GI50 (OVCAR-5 ovarian): 23.7 µM | TGI (OVCAR-5 ovarian): 80.9 µM | GI50 (OVCAR-8 ovarian): 28.5 µM | TGI (OVCAR-8 ovarian): > 100 µM | GI50 (PC-3 prostate): 23.2 µM | TGI (PC-3 prostate): 93.6 µM | GI50 (RPMI-8226 leukemia): 15.8 µM | TGI (RPMI-8226 leukemia): 52.6 µM | GI50 (RXF 393 renal): 69.3 µM | TGI (RXF 393 renal): > 100 µM | GI50 (SF-268 CNS): 33.3 µM | TGI (SF-268 CNS): > 100 µM | GI50 (SF-295 CNS): 27.5 µM | TGI (SF-295 CNS): 67.5 µM | GI50 (SF-539 CNS): 21.5 µM | TGI (SF-539 CNS): 75.4 µM | GI50 (SK-MEL-2 melanoma): 68.7 µM | TGI (SK-MEL-2 melanoma): > 100 µM | GI50 (SK-MEL-28 melanoma): 51.8 µM | TGI (SK-MEL-28 melanoma): > 100 µM | GI50 (SK-MEL-5 melanoma): 12.9 µM | TGI (SK-MEL-5 melanoma): 44.9 µM | GI50 (SK-OV-3 ovarian): 37.3 µM | TGI (SK-OV-3 ovarian): > 100 µM | GI50 (SN12C renal): 20.8 µM | TGI (SN12C renal): 89.4 µM | GI50 (SNB-19 CNS): 73.8 µM | TGI (SNB-19 CNS): > 100 µM | GI50 (SR leukemia): 9.09 µM | TGI (SR leukemia): > 100 µM | GI50 (SW-620 colon): 44.4 µM | TGI (SW-620 colon): > 100 µM | GI50 (TK-10 renal): 19.4 µM | TGI (TK-10 renal): 60.4 µM | GI50 (U251 CNS): 17 µM | TGI (U251 CNS): 59.2 µM | GI50 (UACC-257 melanoma): 41.4 µM | TGI (UACC-257 melanoma): > 100 µM | GI50 (UACC-62 melanoma): 15.1 µM | TGI (UACC-62 melanoma): 44.3 µM | GI50 (UO-31 renal): 43.9 µM | TGI (UO-31 renal): > 100 µM
